In patent US9139548B2, “Polycyclic derivatives, preparation process and pharmaceutical use thereof” (Jiangsu Hengrui Medicine Co., Ltd., priority 2012, dated 2015):

Assays:
GPR40 = target: T1, GPR40 (Homo sapiens, UniProt O14842); assay: Agonist activity on CHO-K1/GPR40 cell (Fluo-4 calcium fluorescence); type: cell-based; conditions: CHO-K1 cell line expressing GPR40, calcium ion fluorescence
T1 construct: host or cells: CHO-K1 (Cell bank of the Chinese Academy of Sciences, GNHa 7), retrovirus infection
Text: Agonist activity of compounds of the present disclosure on CHO-K1/GPR40 cell.
The following method was used to determine the agonist activity of compounds of the present disclosure on GPR40. The experiment process is described as follows:
CHO-K1/GPR40 cell (CHO-K1 cell line expressing GPR40, which was constructed using retrovirus infection method, CHO-K1/GPR40 cell for short, wherein CHO-K1 cell was purchased from Cell bank of the Chinese Academy of Sciences, catalogue number GNHa 7; GPR40 cDNA was purchased from Guangzhou FulenGen Co., Ltd, catalogue number EX-UO270-MO2) was inoculated in a 96-well plate with an inoculation density of 25000 cells/well. The cell plate was incubated at 37° C. and 5% CO2 for 24 hours. The cell culture fluid was discarded during the experiment, the cells were washed with buffer solution (1×HBSS+20 mM HEPES pH 7.4) once, 100 μL of Fluo-4 calcium ion dye was quickly added into each well, incubated at 37° C. in the dark for 30 minutes, and then at room temperature for another 30 minutes. During the determination, the baseline value of each well was read at first, and then different concentrations of drug were added to the wells (50 μL/well), and the fluorescence values were then read. The fluorescence excitation wavelength was 494 nm and the emission wavelength was 516 nm. The increase of fluorescence intensity was proportional to calcium ion level in the cells. Cell response rate of each cell/(The maximum fluorescence value−The minimum fluorescence value)/The minimum fluorescence value. EC50 values of the compounds were calculated

[1] = Pharmacokinetics assay in rats after intragastric administration; type: in vivo; conditions: for Vd/F / AUC / CL/F / half-life / MRT / Cmax: both sexes, SD, rat, plasma, po, 5 mg/kg; for Vd/F: read-out: Apparent Distribution Volume Vz/F; for AUC: read-out: Area under Curve AUC; for CL/F: read-out: Clearance CL/F (converted); for half-life: read-out: Half-Life t½ (converted); for MRT: read-out: Mean Residence Time MRT; for Cmax: read-out: Plasma Conc. Cmax
Method: The compounds of the present invention were administered intragastrically to determine the drug concentration in plasma at different time points. The pharmacokinetic behavior of the compounds of the present invention was studied and evaluated in rats.
Compounds of Example 1, Example 2, Example 13 and Example 30
16 healthy adult SD rats were divided into 4 groups with 4 in each group, half male and half female. Rats were purchased from SINO-BRITSH SIPPR/BK LAB. ANIMAL LTD., CO, License number: SCXK (Shanghai) 2008-0016
The appropriate amount of test compounds were weighed and added to 0.5% sodium carboxymethyl cellulose to prepare a 0.5 mg/mL suspension using microwave.
After an overnight fast, the rats were administered intragastrically a dose of 5.0 mg/kg, at an administration volume of 10 mL/kg. Blood samples were taken before administration and after administration at different time points over 24.0 hours, using heparin as an anticoagulant. The separated plasma samples were stored at −20° C. The rats were fed 2 hours after administration.
Blood samples (0.1 mL) were taken before administration and at 1.0, 2.0, 3.0, 4.0, 6.0, 8.0, 11.0, 24.0 and 48.0 hours after administration, which were stored in heparinized tubes and centrifuged for 5 minutes at 3,500 rpm to separate blood plasma. The plasma samples were stored at −20° C. The rats were fed 2 hours after administration.
The content of the different test compounds in rat plasma samples after the intragastric administration was determined by LC/MS/MS method. The linearity of the method is 1.00˜2000 ng/ml. The blood sample was analyzed after protein precipitation was accomplished by the addition of methanol.

[2] = system: ICR mice fed on a high fat diet; assay: Oral glucose tolerance test (OGTT) in glucose load mice fed on a high fat diet; type: in vivo; conditions: blood glucose AUC, high fat diet ICR male mice, single oral dose 40 mg/kg
Method: ICR mice fed on a high fat diet were used as test animals. The effect of oral administration of a single dose of the compounds of the present disclosure on oral glucose tolerance test (OGTT) of glucose load mice was studied.
Compounds of Example 1, Example 2, Example 13, Example 16, Example 18, Example 19 and Example 26
Healthy ICR male mice were purchased from SINO-BRITSH SIPPR/BK LAB. ANIMAL LTD., CO, License number: SCXK (Shanghai) 2008-0016
The test compounds were added to aqueous 0.5% CMC-Na solution to prepare the corresponding concentration suspension using microwave.
After an overnight fast for 16 hours, male mice fed on a high fat diet were weighed, and the basic blood glucose was determined. The mice were randomly divided into a Blank group and the group of each test compound of the present disclosure according to the level of blood glucose.
The dosage of administration was 20 mg/kg or 40 mg/kg, and the Blank group was administered aqueous 0.5 CMC-Na solution.
20% Glucose solution was administered 15 minutes after intragastrical administration (each mouse was administered 0.4 mL)
The compounds were administered according to the aforesaid dosage to determine the blood glucose value (−15 minutes).
At 15 minutes after administration, 20% glucose solution was administrated at a dose of 2 g/kg and the blood glucose values at 0, 15, 30, 45, 60 and 120 minutes in each mouse were determined by Roche Accu-Chek blood glucose monitoring meter.
Using Excel statistical software: the average value was calculated with avg; SD value was calculated with STDEV; and P value of difference among groups was calculated with TTEST. • AUC calculation formula: AUC=(t15min+t0min)×0.25/2+(t30min+t15min)×0.25/2+(t45min+t30min)×0.25/2+(t60min+t45min)×0.25/2+(t120min+t60min)×1/2 • Wherein t0min, t15min, t30min, t45min, t60min, t120min were blood glucose values determined at different time points.

T1 sequence (O14842 whole entry): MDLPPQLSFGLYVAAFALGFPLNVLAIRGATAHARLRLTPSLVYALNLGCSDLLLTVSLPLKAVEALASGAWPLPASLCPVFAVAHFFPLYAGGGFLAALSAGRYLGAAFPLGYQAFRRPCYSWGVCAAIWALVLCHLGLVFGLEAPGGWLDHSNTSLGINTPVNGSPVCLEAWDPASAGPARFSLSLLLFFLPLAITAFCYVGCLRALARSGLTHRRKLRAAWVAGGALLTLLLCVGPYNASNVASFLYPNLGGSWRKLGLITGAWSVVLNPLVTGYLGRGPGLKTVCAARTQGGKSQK

**Q.** What does the source list for `Cc1cc(O[C@@H]2COC[C@H]2O)cc(C)c1-c1cccc(COc2ccc3c(c2)OC[C@H]3CC(=O)O)c1` (mixture of isomers) [Example 13, 2-((S)-6-((4′-(((3R,4R)/(3S,4S)-4-Hydroxytetrahydrofuran-3-yl)oxy)-2′,6′-dimethylbiphenyl-3-yl)methoxy)-2,3-dihydrobenzofuran-3-yl)acetic acid]?
**A.** EC50 (GPR40): 16 nM; Area under Curve AUC ([1]; SD rats, 5 mg/Kg): 39357 ± 10659 ng·h/mL; Clearance CL/F ([1]; SD rats, 5 mg/Kg): 2.17 ± 0.5 mL/min/kg; Half-Life t½ ([1]; SD rats, 5 mg/Kg): 10.0 ± 0.3 h; Mean Residence Time MRT ([1]; SD rats, 5 mg/Kg): 12.5 ± 1.5 h; Plasma Conc. Cmax ([1]; SD rats, 5 mg/Kg): 3153 ± 482 ng/mL; AUC decrease rate % ([2]; 40 mg/kg): 39.71%

**Q.** For `Cc1cc(O[C@H]2CCOC2)cc(C)c1-c1cccc(COc2ccc3c(c2)OC[C@H]3CC(=O)O)c1` [Example 1, 2-((S)-6-((2′,6′-Dimethyl-4′-(((S)-tetrahydrofuran-3-yl)oxy)biphenyl-3-yl)methoxy)-2,3-dihydrobenzofuran-3-yl)acetic acid], which EC50 (GPR40) is on record?
**A.** 31 nM

**Q.** And the Vd/F [1]?
**A.** 3.39 ± 1.24 L/kg

**Q.** And the AUC [1]?
**A.** 21600 ± 8620 ng·h/mL

**Q.** And the CL/F [1]?
**A.** 4 mL/min/kg

**Q.** And the half-life [1]?
**A.** 10.1 ± 3.3 h

**Q.** And the MRT [1]?
**A.** 14.5 ± 4.7 h

**Q.** What about the Cmax [1] of the same compound?
**A.** 1690 ± 698 ng/mL

**Q.** And the “AUC decrease rate %” value [2]?
**A.** 36.08%

**Q.** With `Cc1cc(O[C@@H]2CCOC2)cc(C)c1-c1cccc(COc2ccc3c(c2)OC[C@H]3CC(=O)O)c1` [Example 2, 2-((S)-6-((2′,6′-Dimethyl-4′-(((R)-tetrahydrofuran-3-yl)oxy)biphenyl-3-yl)methoxy)-2,3-dihydrobenzofuran-3-yl)acetic acid] as the compound, how does the EC50 (GPR40) read?
**A.** 35 nM

**Q.** And the Vd/F [1]?
**A.** 2.79 ± 0.79 L/kg

**Q.** What about the AUC [1] of the same compound?
**A.** 32900 ± 11900 ng·h/mL

**Q.** And the CL/F [1]?
**A.** 2.5 mL/min/kg

**Q.** And the half-life [1]?
**A.** 13.4 ± 3.8 h

**Q.** What about the MRT [1] of the same compound?
**A.** 18.9 ± 6 h

**Q.** And the Cmax [1]?
**A.** 2010 ± 511 ng/mL

**Q.** And the “AUC decrease rate %” value [2]?
**A.** 29.49%

**Q.** Which EC50 (GPR40) does the source give for `Cc1cc(O[C@@H]2COC[C@H]2O)cc(C)c1-c1cccc(COc2ccc3c(c2)OC[C@H]3CC(=O)O)c1` [Example 30, 2-((S)-6-((4′-(((3R,4R)-4-hydroxytetrahydrofuran-3-yl)oxy)-2′,6′-dimethylbiphenyl-3-yl)methoxy)-2,3-dihydrobenzofuran-3-yl)acetic acid] here?
**A.** 34 nM

**Q.** And the Vd/F [1]?
**A.** 1.88 ± 0.66 L/kg

**Q.** And the AUC [1]?
**A.** 38200 ± 15000 ng·h/mL

**Q.** What about the CL/F [1] of the same compound?
**A.** 2.33 mL/min/kg

**Q.** What about the half-life [1] of the same compound?
**A.** 9.35 ± 0.55 h

**Q.** And the MRT [1]?
**A.** 13.3 ± 2 h

**Q.** And the Cmax [1]?
**A.** 2730 ± 478 ng/mL

**Q.** And the “AUC decrease rate %” value ([2]; 40 mg/kg)?
**A.** 29.59%
